# Structures can show the parent of a compound that is named as a salt.
# What was measured:
# [1] = Pharmacokinetic performance of low dose doxepin capsules and tablets in healthy adult volunteers, crossover design; type: in vivo, human; details: majority of subjects
# Protocol: The pharmacokinetic performance of oral, low dose doxepin formulations is well suited to the treatment of insomnia. The pharmacokinetic performance of capsules containing 1, 3 or 6 mg doxepin, as well as tablets containing 6 mg doxepin, was evaluated in healthy adult volunteers under a crossover design.
# Of further interest to the pharmacokinetic performance of these doxepin formulations was the time necessary to reach certain plasma concentrations. Reaching particular concentrations in plasma can play a role in establishing therapeutic benefit. In particular, doxepin concentrations in plasma reach 0.05 ng/mL in the majority of subjects for all doses within 90 minutes after dosing. […] Such pharmacokinetic performance is beneficial in the treatment of insomnia, as reaching measurable plasma concentrations in a timely manner can be preferred for facilitating the onset of sleep.
# [2] = test system: adult insomnia patients; assay: Polysomnographic endpoints in adult insomnia patients treated with 3 mg doxepin
# [3] = Biopharmaceutic Classification System; cited from earlier work
Structure (SMILES),time after dosing to reach plasma concentration of 0.1 ng/mL ([1]; 3 and 6 mg doses) [min],time after dosing for doxepin plasma concentration to reach 0.05 ng/mL ([1]; all doses) [min],maintenance of sleep [2],residual sedation [2],"sleep onset, on average, after bedtime ([2]; polysomnographic endpoint) [min]",solubility [3]
CN(C)CCC=C1c2ccccc2COc2ccccc21 [doxepin],≤ 60,≤ 90,persisted throughout the entire night (8 hours),not followed by residual sedation,27,
"CN(C)CCC=C1c2ccccc2COc2ccccc21 [doxepin HCl, Doxepin HCl]",,,,,,high solubility

# — patent publication US10548871B2, “Low-dose doxepin formulations and methods of making and using the same” (Pernix Sleep, Inc., priority 2007, dated 2020)
